Test results from paper PMC7501440 (Heliyon, 2020).
Where two headings read alike, the source gives them in different places.

Assays:
[1] = biological target: T1, Human acetycholinesterase (hAChE) (Homo sapiens, UniProt P22303); assay: hAChE inhibition assay, modified Ellman's colorimetric protocol; assay type: biochemical
T1 construct: purchased Sigma
Experimental: (§1) Human acetycholinesterase (hAChE) activities were determined with a slight modification of Ellman's colorimetric protocol. […] The bioactivity was determined by evaluating the hydrolysis rate of acetylthiocholine iodide (ATCI, 0.1 mM) with the final volume of 300 μL with a phosphate buffer of 180 μL of 100 mM, pH 7.3 and 2 mM DTNB 0.09U of hAChE (Sigma) were applied to this solution and pre-incubated for 45 min at room temperature. The 96-well microplate was read in a microplate reader (Ensight Multimode Reader, Perkin Elmer) at 412 nm after adding DTNB and ATCI. The enzyme kinetic parameters were determined by incubating the substrate at multiple concentrations with or without test inhibitor by double-reciprocal (Lineweaver- Burk) plots in 0.09U of hAChE. From the Lineweaver-Burk plots, the inhibition mechanisms were measured graphically. The kinetics were performed using a series of concentrations of 4a to 4e and substrate AChI at 412 nm. The quantitative datas were expressed as mean ± SD results from three independent experiments. GraphPad Prism version 6.01 (GraphPad Software Inc., San Diego, USA) was used for regression analysis to calculate the IC50 values and the enzyme kinetic parameters (Km, Vmax). The IC50 and enzyme kinetics values (Vmax and Km) were calculated by this formula IC50 Y = min + max-min/1+(X/EC50)^−Hillslops. . Vmax and Km Y = Vmax∗X/(Km + X).
(§2) An evaluation of the therapeutic potential in the treatment of AD of target compounds 4a, 4b, 4c, 4d and 4e were measured for AChE inhibitory activity using the Ellman method. To find the inhibitory effects, the test compounds were incubated with multiple concentrations of human AChE. […] These compounds were designed from the trans-tephrostachin. It was isolated and structuraly characterized from Tephrosia purpurea in our previous studies. To investigate the mechanism of trans-tephrostachin derivatives against AChE, kinetic studies were conducted for all compounds. Such plots presented a secondary plot of Km/Vmax versus test compound concentrations for the Km and Vmax. […] Compound 4a is a trans-tephrostachin which was isolated and structurally characterized previously.

[2] = biological target: T1, Human acetycholinesterase (hAChE); assay: hAChE enzyme kinetics, Lineweaver-Burk and secondary plots; assay type: biochemical; settings: for Vmax: hAChE in presence of inhibitor, without inhibitor 0.34 ± 0.01; for Inhibition type: hAChE, Lineweaver-Burk plots
Experimental: as §1, §2

[3] = system: AChE; set-up: method as in PMID 17962731; settings: AChE inhibition; cited from earlier work
[4] = human AChE, Ellman method, average of three sets of assays, read-out: IC50 Concentration
[5] = human AChE, secondary plot of Km/Vmax versus compound concentration, read-out: Ki

T1 sequence (P22303 32-614): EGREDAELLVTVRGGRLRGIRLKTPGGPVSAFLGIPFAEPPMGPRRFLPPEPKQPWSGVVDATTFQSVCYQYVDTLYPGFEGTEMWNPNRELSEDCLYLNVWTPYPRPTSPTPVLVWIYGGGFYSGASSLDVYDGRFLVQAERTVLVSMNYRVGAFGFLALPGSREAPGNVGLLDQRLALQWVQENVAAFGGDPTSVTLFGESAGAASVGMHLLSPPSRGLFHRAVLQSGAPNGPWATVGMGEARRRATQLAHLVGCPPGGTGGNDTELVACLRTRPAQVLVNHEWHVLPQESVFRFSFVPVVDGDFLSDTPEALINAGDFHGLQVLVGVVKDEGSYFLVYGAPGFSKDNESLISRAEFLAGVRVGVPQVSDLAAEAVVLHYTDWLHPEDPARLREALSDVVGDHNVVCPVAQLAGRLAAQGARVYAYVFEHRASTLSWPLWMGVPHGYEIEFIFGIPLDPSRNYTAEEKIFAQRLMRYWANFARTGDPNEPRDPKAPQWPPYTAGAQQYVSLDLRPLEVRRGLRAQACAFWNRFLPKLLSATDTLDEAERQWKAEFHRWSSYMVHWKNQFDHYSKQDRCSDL

In the case of `COc1cc(OC)c2c(=O)cc(-c3ccccc3)oc2c1/C=C/C(C)(C)O` [Compound 4a, (E)-8-(3-hydroxy-3-methylbut-1-en-1-yl)-5,7-dimethoxy-2-phenyl-4H-chromen-4-one], the IC50 [1, 4] is reported as 35 ± 1.2 µM, the Vmax [2] is reported as 0.13 ± 0.08 and the Inhibition type [2] is reported as “mixed type inhibition”. It also gave a Ki [2, 5] of 29.3 ± 7.2 µM.
With `CCOc1cc(OCC)c2c(=O)cc(-c3ccccc3)oc2c1/C=C/C(C)(C)O` [Compound 4b, (E)-5,7-diethoxy-8-(3-hydroxy-3-methylbut-1-en-1-yl)-2-phenyl-4H-chromen-4-one] the IC50 [1, 4] was 35.6 ± 2.8 µM, the Vmax [2] was 0.34 ± 0.01 and the Inhibition type [2] was “Competitive inhibition”. For the same molecule, the Ki [2, 5] was 206 ± 12 µM.
For `CC(C)(O)/C=C/c1c(OC(=O)c2ccccc2)cc(OC(=O)c2ccccc2)c2c(=O)cc(-c3ccccc3)oc12` [Compound 4c, (E)-8-(3-hydroxy-3-methylbut-1-en-1-yl)-4-oxo-2-phenyl-4H-chromene-5,7-diyl dibenzoate], the IC50 [1, 4] was 10.6 ± 2.8 µM, the Vmax [2] was 0.14 ± 0.1 and the Inhibition type [2] was “mixed type inhibition”. It also gave a Ki [2, 5] of 46.4 ± 9.5 µM.
For `CC(C)(O)/C=C/c1c(OC(=O)c2ccc([N+](=O)[O-])cc2)cc(OC(=O)c2ccc([N+](=O)[O-])cc2)c2c(=O)cc(-c3ccccc3)oc12` [Compound 4d, (E)-8-(3-hydroxy-3-methylbut-1-en-1-yl)-4-oxo-2-phenyl-4H-chromene-5,7-diyl bis(4-nitrobenzoate)], the IC50 [1] was 10.3 µM, the Ki [2] was 8.25 ± 1.7 µM and the Vmax [2] was 0.15 ± 0.01. For the same molecule, the Inhibition type [2] was “mixed type inhibition”.
In the case of `CC(=O)Oc1cc(OC(C)=O)c2c(=O)cc(-c3ccccc3)oc2c1/C=C/C(C)(C)O` [Compound 4e, (E)-8-(3-hydroxy-3-methylbut-1-en-1-yl)-4-oxo-2-phenyl-4H-chromene-5,7-diyl diacetate], the IC50 [1, 4] is reported as 28.1 ± 2.1 µM, the Vmax [2] is reported as 0.36 ± 0.2 and the Inhibition type [2] is reported as “Competitive inhibition”. The Ki [2, 5] was 198 ± 10.1 µM.
In the case of `C[n+]1c2n(c(=O)c3ccccc31)CCc1c-2[nH]c2ccccc12` [dehydroevodiamine], the IC50 [3] is given as 37.8 µM.
For `C[C@@H]1O[C@@H](Oc2c(-c3ccc(O)c(O)c3)oc3cc(O)cc(O)c3c2=O)[C@H](O)[C@H](O)[C@H]1O` [quercitrin], the IC50 [3] is given as 66.9 µM.
For `O=C(/C=C/c1ccc(O)cc1)OC[C@H]1O[C@@H](Oc2c(-c3ccc(O)cc3)oc3cc(O)cc(O)c3c2=O)[C@H](O)[C@@H](O)[C@@H]1O` [tiliroside], the IC50 [3] is listed as 23.5 µM.
